Experimental data reported in patent US20220204473A1, “COMPOUND AS IRAK INHIBITOR” (SHANGHAI MEIYUE BIOTECH DEVELOPMENT CO., LTD., priority 2018, published 2022).

Assays:
CYP2C19 = target: T1, CYP2C19 (Homo sapiens, UniProt P33261); test: CYP450 inhibition in human liver microsomes, CYP2C19; assay type: in vitro ADME; details: human liver microsomes, probe mephenytoin; read-out: IC50, subtype 2C19
T1 construct: tissue Corning (USA); host or cells: mixed human liver microsomes
Experimental: (§1) This study was intended to investigate the inhibitory effect of the test compounds on five major CYP450 enzyme subtypes CYP1A2, 2C9, 2C19, 2D6 and 3A4 in human liver microsomes. The mixed human liver microsomes used in this assay were purchased from Corning (USA). The test compounds were co-incubated at 7 concentrations with human liver microsomes and five probe substrates (phenacetin for CYP1a2, diclofenac for CYP2C9, mephenytoin for CYP2C19, dextromethorphan for CYP2D6, midazolam for CYP3A4-M, mixed). The reaction was initiated by adding coenzyme NADPH, and terminated by adding acetonitrile containing internal standard. After the proteins were precipitated, the supernatant was centrifuged. The characteristic metabolites in the supernatant (acetaminophen for CYP1A2, 4-hydroxydiclofenac for CYP2C9, 4-hydroxymephenytoin for CYP2C19, dextrorphan for CYP2D6, 1-hydroxymidazolam for CYP3A4-M) were analyzed by LC-MS/MS. The influence of the test compounds on production of the characteristic metabolites was finally analyzed on the basis of the data obtained. A selective inhibitor (ketoconazole for CYP3A4-M) was used as positive control. All samples were tested in duplicate.

[1] = tested on: IL-6 release in LPS-induced Balb/c female mice; test: Inhibition of IL-6 release in LPS-induced Balb/c female mice; assay type: in vivo, mouse; set-up: concentration or dose not given beside the values; details: administered 5 h before LPS induction, serum
Experimental: Objective of the test: To determine the inhibitory effect of the compounds by measuring the plasma IL-6 concentration in a Balb/c mouse model with LPS-induced inflammation.
2.1 Prepared mouse serum samples (sample batch no. 20181218)
4.1 Reagent kit was equilibrated at room temperature (25-28° C.) for 20 min. After each detection, the remaining reagents were stored at 4° C.
4.3 Preparing reference standard: 1 vial of reference standard substance was added with labeled volume of reference standard diluent. The mixtures were incubated for 15 min at room temperature. Then the mixtures were gently mixed to completely dissolve the substance to prepare a reference standard stock at a final concentration of 1000 μg/mL.
4.4 Dilution of samples: The sample in each group was diluted by […], i.e., a 2-fold dilution with sample assay buffer followed by another two-fold dilution with standard diluent.
4.5 The diluted samples or standards of different concentrations were added into corresponding wells at 100 μL/well respectively, and a background correcting well (or a blank well) was set by adding only TMB buffer and terminating solution. The wells were sealed with a transparent film and incubated at room temperature for 120 min.
4.6 The plate was subjected to 5 washes, each with 300 μL of washing buffer for 15-30 sec. The plate was dried on thick absorbent paper after the last wash.
4.7 Biotinylated antibody was added at 100 μL/well (Note: the biotinylated antibody was prepared in advance and could be used directly without further dilution). The wells were sealed with a transparent film and incubated at room temperature for 60 min.
4.8 The plate was subjected to 5 washes, each with 300 μL of washing buffer for 15-30 sec. The plate was dried on thick absorbent paper after the last wash.
4.9 Horseradish peroxidase-labeled streptavidin was added at 100 μL/well. The wells were sealed with a white film and incubated away from light at room temperature for 20 min.
4.10 The plate was subjected to 5 washes, each with 300 μL of washing buffer for 15-30 sec. The plate was dried on thick absorbent paper after the last wash.
4.11 The chromogenic reagent TMB was added 100 μL/well. The wells were sealed with a white film and incubated away from light at room temperature for 20 min.
4.12 The terminating solution was added at 50 μL/well and A450 value was measured right after mixing.

CYP1A2 = target: T2, CYP1A2 (Homo sapiens, UniProt P05177); test: CYP450 inhibition in human liver microsomes, CYP1A2; assay type: in vitro ADME; details: human liver microsomes, probe phenacetin; read-out: IC50, subtype 1A2
T2 construct: tissue Corning (USA); host or cells: mixed human liver microsomes
T2 sequence (P05177 1-516): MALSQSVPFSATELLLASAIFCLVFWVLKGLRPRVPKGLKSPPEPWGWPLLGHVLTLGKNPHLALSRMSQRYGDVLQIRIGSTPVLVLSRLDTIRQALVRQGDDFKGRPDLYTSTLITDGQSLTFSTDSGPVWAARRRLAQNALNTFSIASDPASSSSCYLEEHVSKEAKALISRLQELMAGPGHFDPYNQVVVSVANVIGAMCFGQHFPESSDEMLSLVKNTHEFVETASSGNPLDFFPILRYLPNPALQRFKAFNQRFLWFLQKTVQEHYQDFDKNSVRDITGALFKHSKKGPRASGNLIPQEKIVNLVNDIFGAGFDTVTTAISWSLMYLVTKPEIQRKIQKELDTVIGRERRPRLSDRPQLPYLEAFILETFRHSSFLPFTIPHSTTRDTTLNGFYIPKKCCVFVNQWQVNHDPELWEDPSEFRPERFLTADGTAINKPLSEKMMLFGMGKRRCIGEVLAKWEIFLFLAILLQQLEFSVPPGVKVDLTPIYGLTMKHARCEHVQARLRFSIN
Experimental: as §1

CYP2D6 = target: T3, CYP2D6 (Homo sapiens, UniProt P10635); test: CYP450 inhibition in human liver microsomes, CYP2D6; assay type: in vitro ADME; details: human liver microsomes, probe dextromethorphan; read-out: IC50, subtype 2D6
T3 construct: tissue Corning (USA); host or cells: mixed human liver microsomes
T3 sequence (P10635 whole entry): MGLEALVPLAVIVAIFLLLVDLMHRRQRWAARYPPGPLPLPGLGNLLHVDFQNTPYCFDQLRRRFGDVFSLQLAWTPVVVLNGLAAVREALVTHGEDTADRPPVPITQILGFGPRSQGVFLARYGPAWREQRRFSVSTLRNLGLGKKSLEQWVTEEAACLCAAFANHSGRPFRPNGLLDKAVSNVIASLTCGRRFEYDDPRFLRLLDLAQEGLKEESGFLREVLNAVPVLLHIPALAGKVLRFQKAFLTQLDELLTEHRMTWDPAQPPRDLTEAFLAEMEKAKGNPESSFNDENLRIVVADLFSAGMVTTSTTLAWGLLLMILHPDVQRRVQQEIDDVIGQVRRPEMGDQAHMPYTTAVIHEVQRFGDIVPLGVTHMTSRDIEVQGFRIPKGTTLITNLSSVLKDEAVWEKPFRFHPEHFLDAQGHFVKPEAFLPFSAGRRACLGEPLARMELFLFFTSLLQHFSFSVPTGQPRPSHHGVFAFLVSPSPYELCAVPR
Experimental: as §1

CYP3A4 = target: T4, CYP3A4 (Homo sapiens, UniProt P08684); test: CYP450 inhibition in human liver microsomes, CYP3A4; assay type: in vitro ADME; details: human liver microsomes, probe midazolam; read-out: IC50, subtype 3A4
T4 construct: tissue Corning (USA); host or cells: mixed human liver microsomes
T4 sequence (P08684 whole entry): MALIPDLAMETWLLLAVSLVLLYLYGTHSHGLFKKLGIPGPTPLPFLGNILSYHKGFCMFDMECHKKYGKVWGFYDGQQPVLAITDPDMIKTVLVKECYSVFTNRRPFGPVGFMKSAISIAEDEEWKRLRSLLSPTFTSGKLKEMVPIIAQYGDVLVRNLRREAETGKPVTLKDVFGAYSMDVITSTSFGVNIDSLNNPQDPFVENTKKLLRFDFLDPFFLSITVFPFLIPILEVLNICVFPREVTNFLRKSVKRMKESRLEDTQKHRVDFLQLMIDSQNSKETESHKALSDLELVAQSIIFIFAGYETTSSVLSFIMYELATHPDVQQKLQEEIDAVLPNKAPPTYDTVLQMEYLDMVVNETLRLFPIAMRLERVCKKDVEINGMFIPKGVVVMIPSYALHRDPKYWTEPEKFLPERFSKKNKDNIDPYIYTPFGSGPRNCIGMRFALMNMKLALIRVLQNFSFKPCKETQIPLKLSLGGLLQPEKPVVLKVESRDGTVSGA
Experimental: as §1

CYP2C9 = target: T5, CYP2C9 (Homo sapiens, UniProt P11712); test: CYP450 inhibition in human liver microsomes, CYP2C9; assay type: in vitro ADME; details: human liver microsomes, probe diclofenac; read-out: IC50, subtype 2C9
T5 construct: tissue Corning (USA); host or cells: mixed human liver microsomes
T5 sequence (P11712 whole entry): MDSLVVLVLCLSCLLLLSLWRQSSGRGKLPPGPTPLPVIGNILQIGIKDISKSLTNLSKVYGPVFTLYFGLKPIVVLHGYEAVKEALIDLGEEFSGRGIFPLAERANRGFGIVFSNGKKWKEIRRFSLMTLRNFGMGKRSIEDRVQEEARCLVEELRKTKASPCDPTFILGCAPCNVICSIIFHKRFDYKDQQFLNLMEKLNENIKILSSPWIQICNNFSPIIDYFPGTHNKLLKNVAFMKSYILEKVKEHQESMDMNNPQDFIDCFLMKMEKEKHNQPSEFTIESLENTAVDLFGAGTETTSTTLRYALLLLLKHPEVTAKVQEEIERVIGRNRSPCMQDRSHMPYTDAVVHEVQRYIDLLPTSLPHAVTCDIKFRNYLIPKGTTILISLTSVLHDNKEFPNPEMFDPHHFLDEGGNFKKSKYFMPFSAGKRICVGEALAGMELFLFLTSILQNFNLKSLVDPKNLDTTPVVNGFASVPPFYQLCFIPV
Experimental: as §1

T1 sequence (P33261 whole entry): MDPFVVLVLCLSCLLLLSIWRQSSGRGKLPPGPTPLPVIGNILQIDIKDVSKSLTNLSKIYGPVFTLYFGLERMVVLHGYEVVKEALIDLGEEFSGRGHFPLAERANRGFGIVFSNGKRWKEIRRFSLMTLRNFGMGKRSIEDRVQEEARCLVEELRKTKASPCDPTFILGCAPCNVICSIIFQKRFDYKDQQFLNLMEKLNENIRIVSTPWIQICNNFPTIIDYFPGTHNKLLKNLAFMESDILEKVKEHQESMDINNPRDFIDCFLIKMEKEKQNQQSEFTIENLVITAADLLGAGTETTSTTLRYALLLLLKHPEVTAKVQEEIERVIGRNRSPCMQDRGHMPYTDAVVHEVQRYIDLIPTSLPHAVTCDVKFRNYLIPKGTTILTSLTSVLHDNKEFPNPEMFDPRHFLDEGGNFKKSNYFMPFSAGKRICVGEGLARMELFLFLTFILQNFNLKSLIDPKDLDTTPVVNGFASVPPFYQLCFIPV

## COc1cc2nn([C@H]3CC[C@H](O)CC3)cc2cc1NC(=O)c1cccc(C(F)(F)F)n1 [MY-004-127-1]
CYP2C19
  IC50: > 30 µM
[1]
  Inhibition rate of IL-6: 83.28%
CYP1A2
  IC50: > 30 µM
CYP2D6
  IC50: > 30 µM
CYP3A4
  IC50: > 30 µM
CYP2C9
  IC50: > 30 µM

## CN(C)c1cc2nn([C@H]3C[C@H](C(C)(C)O)C3)cc2cc1NC(=O)c1cccc(C(F)(F)F)n1 [MY-004-089]
[1]
  Inhibition rate of IL-6: 94.33%

## COc1cc2nn([C@H]3CC[C@@](C)(O)CC3)cc2cc1NC(=O)c1cccc(C(F)(F)F)n1 [MY-004-126-2]
[1]
  Inhibition rate of IL-6: 93.39%

## CC(C)(O)c1cc2nn([C@H]3CC[C@](C)(O)CC3)cc2cc1NC(=O)c1cccc(C(C)(F)F)n1 [MY-004-165]
CYP2C19
  IC50: > 30 µM
CYP1A2
  IC50: > 30 µM
CYP2D6
  IC50: > 30 µM
CYP3A4
  IC50: > 30 µM
CYP2C9
  IC50: 20.9 µM

## COc1cc2nn([C@H]3CC[C@](C)(O)CC3)cc2cc1NC(=O)c1cccc(C(F)(F)F)n1 [MY-004-126-1]
CYP2C19
  IC50: > 30 µM
[1]
  Inhibition rate of IL-6: 97.05%
CYP1A2
  IC50: > 30 µM
CYP2D6
  IC50: > 30 µM
CYP3A4
  IC50: > 30 µM
CYP2C9
  IC50: > 30 µM
